From ChEMBL document CHEMBL2021765, “Design and synthesis of thiourea derivatives containing a benzo[5,6]cyclohepta[1,2-b]pyridine moiety as potential antitumor and anti-inflammatory agents” (Bioorg Med Chem Lett, 2012)

How the values were obtained:
MDA-MB-231 = assay: cells; assay type: functional, cell-based; conditions: Homo sapiens, MDA-MB-231, 144 h
Description: Antiproliferative activity against human MDA-MB-231 cells assessed as growth inhibition after 144 hrs by crystal violet staining method

Mus musculus [1] = assay: Antiinflammatory activity in overnight fasted Kunming mouse assessed as inhibition of xylene-induced ear swelling at 4 mg/kg, ip administered before challenge for 5 days measured 1 hr post xylene challenge; assay type: functional; conditions: route intraperitoneal
HT-29 = assay: cells; assay type: functional, cell-based; conditions: Homo sapiens, HT-29, 144 h
Description: Antiproliferative activity against human HT-29 cells assessed as growth inhibition after 144 hrs by crystal violet staining method

MCF7 = assay: cells; assay type: functional, cell-based; conditions: Homo sapiens, MCF7, 144 h
Description: Antiproliferative activity against human MCF7 cells assessed as growth inhibition after 144 hrs by crystal violet staining method

[2] = biological target: T1, Prostaglandin G/H synthase 1 (Ovis aries) (UniProt P05979); assay: Inhibition of ovine COX1 at 10 uM by ELISA
T1 sequence (whole entry): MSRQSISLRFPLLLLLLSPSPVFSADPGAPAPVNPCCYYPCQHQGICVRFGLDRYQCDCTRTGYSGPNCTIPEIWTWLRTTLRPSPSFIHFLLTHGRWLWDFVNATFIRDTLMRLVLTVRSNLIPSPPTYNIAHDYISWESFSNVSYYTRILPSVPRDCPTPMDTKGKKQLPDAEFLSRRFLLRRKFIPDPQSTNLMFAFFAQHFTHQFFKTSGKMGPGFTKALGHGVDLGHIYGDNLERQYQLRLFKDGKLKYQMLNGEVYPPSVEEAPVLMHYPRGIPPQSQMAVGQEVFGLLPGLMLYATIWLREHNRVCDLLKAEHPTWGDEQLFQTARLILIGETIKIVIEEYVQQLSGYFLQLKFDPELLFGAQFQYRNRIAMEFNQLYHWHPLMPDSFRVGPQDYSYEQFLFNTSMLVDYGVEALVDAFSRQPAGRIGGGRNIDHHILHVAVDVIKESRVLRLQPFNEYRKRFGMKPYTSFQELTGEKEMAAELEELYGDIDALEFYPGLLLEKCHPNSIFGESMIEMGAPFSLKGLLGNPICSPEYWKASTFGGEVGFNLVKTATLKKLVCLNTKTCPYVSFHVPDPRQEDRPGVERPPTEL

Mus musculus [3] = assay: Antiinflammatory activity in overnight fasted Kunming mouse assessed as inhibition of xylene-induced ear swelling at 30 mg/kg, ip administered before challenge for 5 days measured 1 hr post xylene challenge; assay type: functional; conditions: route intraperitoneal

Row | Compound | IC50 (MDA-MB-231) | inhibition in vivo at 4 mg/kg (Mus musculus [1]) | IC50 (HT-29) | IC50 (MCF7) | inhibition [2] | inhibition in vivo at 30 mg/kg (Mus musculus [3])
1 | CNC(=S)N1CCC(=C2c3ccc(Cl)cc3CCc3cccnc32)CC1 | 7.1 µM | 26.1% | 9.6 µM | 9.4 µM | – | –
2 | Cc1ccccc1NC(=S)N1CCC(=C2c3ccc(Cl)cc3CCc3cccnc32)CC1 | 4.7 µM | 13% | 6.6 µM | 5.4 µM | – | –
3 | O=c1[nH]cc(F)c(=O)[nH]1 [FLUOROURACIL] | – | – | – | 4.7 µM | – | –
4 | S=C(NC1CCCCC1)N1CCC(=C2c3ccc(Cl)cc3CCc3cccnc32)CC1 | 8.1 µM | 30.4% | 6.2 µM | 5.1 µM | 11.6% | –
5 | CC(=O)Oc1ccccc1C(=O)O | – | – | – | – | 29% | –
6 | CC(C)Cc1ccc(C(C)C(=O)O)cc1 (stereo not drawn) [IBUPROFEN] | – | 8.69% | – | – | – | 39.1%
7 | COc1ccccc1NC(=S)N1CCC(=C2c3ccc(Cl)cc3CCc3cccnc32)CC1 | 10.4 µM | 21.7% | 9.2 µM | 7.6 µM | – | –
8 | S=C(Nc1ccccc1)N1CCC(=C2c3ccc(Cl)cc3CCc3cccnc32)CC1 | 6.4 µM | 21.7% | 6.7 µM | 5.6 µM | – | –
9 | CCOC(=O)N1CCC(=C2c3ccc(Cl)cc3CCc3cccnc32)CC1 [LORATADINE] | 8.4 µM | – | 6.2 µM | 7.5 µM | – | –
